Measured values published in article PMC6696243, “Synthesis and In Vitro Evaluation of 8-Pyridinyl-Substituted Benzo[e]imidazo[2,1-c][1,2,4]triazines as Phosphodiesterase 2A Inhibitors” (Molecules, 2019).
Several values for one entry are separate records, joined by “and”; a condition that tells them apart may be missing. Equal entries are not always repeated. Entries after “also recorded” stand apart in the source; their conditions may differ.

Legend:
[1] = test system: PDE2A; conditions: cited from earlier work; for IC50: Figure 1
[2] = test system: PDE10A; design: method as in PMID 27213312, PMID 26016549, PMID 29498659; conditions: Figure 1; cited from earlier work
[3] = biological target: T1, PDE4A1 (Homo sapiens, UniProt P27815); assay: PDE4A1 radiometric enzyme inhibition assay; type: biochemical; conditions: compound at 1 µM; read-out: Inhibition of PDE Sub-Types (%) 4A1
T1 construct: purchased SB Drug Discovery (Scotland, U.K.); host or cells: baculoviral system

[4] = biological target: T2, PDE5A1 (Homo sapiens, UniProt O76074); assay: PDE5A1 radiometric enzyme inhibition assay; type: biochemical; conditions: compound at 1 µM; read-out: Inhibition of PDE Sub-Types (%) 5A1
T2 construct: purchased SB Drug Discovery (Scotland, U.K.); host or cells: baculoviral system

[5] = biological target: T3, PDE9A1 (Homo sapiens, UniProt O76083); assay: PDE9A1 radiometric enzyme inhibition assay; type: biochemical; conditions: compound at 1 µM; read-out: Inhibition of PDE Sub-Types (%) 9A1
T3 construct: purchased SB Drug Discovery (Scotland, U.K.); host or cells: baculoviral system

[6] = biological target: T4, PDE1A3 (Homo sapiens, UniProt P54750); assay: PDE1A3 radiometric enzyme inhibition assay; type: biochemical; conditions: measured at 1 µM
T4 construct: purchased SB Drug Discovery (Scotland, U.K.); host or cells: baculoviral system

[7] = biological target: T5, PDE3A (Homo sapiens, UniProt Q14432); assay: PDE3A radiometric enzyme inhibition assay; type: biochemical; conditions: measured at 1 µM
T5 construct: purchased SB Drug Discovery (Scotland, U.K.); host or cells: baculoviral system

[8] = biological target: T6, PDE6AB (Homo sapiens, UniProt P16499+P35913); assay: PDE6AB radiometric enzyme inhibition assay; type: biochemical; conditions: measured at 1 µM
T6 construct: purchased SB Drug Discovery (Scotland, U.K.); host or cells: baculoviral system

[9] = biological target: T7, PDE7A (Homo sapiens, UniProt Q13946); assay: PDE7A radiometric enzyme inhibition assay; type: biochemical; conditions: measured at 1 µM
T7 construct: purchased SB Drug Discovery (Scotland, U.K.); host or cells: baculoviral system

[10] = biological target: T8, PDE8A1 (Homo sapiens, UniProt O60658); assay: PDE8A1 radiometric enzyme inhibition assay; type: biochemical; conditions: measured at 1 µM
T8 construct: purchased SB Drug Discovery (Scotland, U.K.); host or cells: baculoviral system

[11] = biological target: T9, PDE11A (Homo sapiens, UniProt Q9HCR9); assay: PDE11A radiometric enzyme inhibition assay; type: biochemical; conditions: measured at 1 µM
T9 construct: purchased SB Drug Discovery (Scotland, U.K.); host or cells: baculoviral system

[12] = Incubation with mouse liver microsomes, HPLC-UV-MS
Method: After protein precipitation by addition of acetonitrile and subsequent centrifugation, the supernatant was examined by HPLC-UV-MS.
Analogously, preincubated NADPH (2 mM) was added, and the mixtures were gently shaken at 37 °C. After 90 min, portions of 1.0 mL of cold acetonitrile (−20 °C) were added, respectively, followed by vigorous shaking (30 s), cooling on ice (4 min), and centrifugation at 14,000 rpm (10 min). Supernatants were concentrated at 50 °C under a flow of nitrogen to provide residual volumes of 40–60 µL, which were reconditioned by adding acetonitrile/water 1:1 (v/v) to obtain samples of 100 µL, which were stored at 4 °C until analyzed by HPLC-UV-MS.
HPLC-UV-MS analyses were performed on a ReproSil-Pur 120 C18-AQ-column, 125 mm × 3 mm, 3 µm (Dr. Maisch GmbH, Ammerbuch, Germany) equipped with an appropriate precolumn at 25 °C and a flow rate of 0.7 mL/min. The solvent system consisted of Eluent A: water, containing 2 mM ammonium acetate, and Eluent B: water/acetonitrile 20/80 (v/v), containing 2 mM ammonium acetate. Two methods were applied. Method A (gradient elution, % acetonitrile): 0–1.5 min, 10%; 1.5–10 min, 10–80%; 10-13 min, 80%; 13–16 min 10%. Method B (isocratic elution, % acetonitrile): 0–25 min, 42%. […] MSQ Plus single quadrupole mass spectrometer was operated in positive electrospray ionization mode: probe temperature 500 °C, needle voltage 5 V, cone voltage 75 V.

[13] = biological target: T10, human PDE2A3 (Homo sapiens, UniProt O00408); assay: PDE2A3 radiometric enzyme inhibition assay; conditions: for Inhibition of PDE Sub-Types (%) 2A3: compound at 10 nM; for Selectivity Ratio (PDE10A/PDE2A): ratio of IC50 PDE10A to IC50 PDE2A, fold
Method: (§1) The phosphodiesterase assays were performed using recombinant human PDE enzymes expressed in a baculoviral system. […] The radiometric assay was a modification of the two-step method of Thompson and Appleman [45], which was adapted for 96-well plate format.
(§2) Firstly, tritium-labeled cyclic AMP or cyclic GMP was hydrolyzed to 5′-AMP or 5′-GMP by phosphodiesterase. The 5′-AMP or 5′-GMP was then further hydrolyzed to adenosine or guanosine by nucleotidase in snake venom. An anion-exchange resin bound all charged nucleotides and left [^3H]adenosine or [^3H]guanosine as the only labeled compound to be counted by liquid scintillation. Briefly, 50 µL of diluted human PDE enzyme were incubated with 50 µL of [^3H]-cAMP or [^3H]-cGMP and 11 µL of 50% DMSO (or compound dilution) for 20 min (at 30 °C). Reactions were carried out in a Greiner 96-deep well 1-mL master-block. The enzyme was diluted in 20 mM Tris HCl pH 7.4 and [^3H]-cAMP or [^3H]-cGMP are diluted in 10 mM MgCl2, 40 mM Tris HCl pH 7.4. The reaction is terminated by denaturing the PDE enzyme (at 70 °C for 2 min), after which 25 µL of snake venom nucleotidase were added and incubated for 10 min (at 30 °C). Plates were centrifuged for 9 seconds before incubation. After incubation, 200 µL of Dowex resin were added, and the plate was shaken for 20 min then centrifuged for 3 min at 2500 r.p.m. Fifty microliters of supernatant were removed and added to 200 µL of MicroScint-20 in white plates (Greiner 96-well Optiplate) and shaken for 30 min before reading on a Perkin Elmer TopCount Scintillation Counter.
(§3) Compounds were tested at a concentration of 10 nM against human PDE2A3 and at 1 µM for PDE4A1, PDE5A, PDE6AB, PDE9A1, and PDE10A1. The percentage of inhibition of the compounds and standard inhibitors was determined and compared to historical assay data to ensure that they fell within acceptable ranges.

[14] = biological target: T11, PDE10A1 (Homo sapiens, UniProt Q9Y233); assay: PDE10A1 radiometric enzyme inhibition assay; conditions: for Inhibition of PDE Sub-Types (%) 10A1: compound at 1 µM
Method: as §1, §2, §3

[15] = biological target: T10, human PDE2A3; assay: biochemical
Method: as §1, §2, §3

[16] = biological target: T11, PDE10A1; assay: biochemical
Method: as §1, §2, §3

T1 sequence (P27815 1-647 isoform P27815-4): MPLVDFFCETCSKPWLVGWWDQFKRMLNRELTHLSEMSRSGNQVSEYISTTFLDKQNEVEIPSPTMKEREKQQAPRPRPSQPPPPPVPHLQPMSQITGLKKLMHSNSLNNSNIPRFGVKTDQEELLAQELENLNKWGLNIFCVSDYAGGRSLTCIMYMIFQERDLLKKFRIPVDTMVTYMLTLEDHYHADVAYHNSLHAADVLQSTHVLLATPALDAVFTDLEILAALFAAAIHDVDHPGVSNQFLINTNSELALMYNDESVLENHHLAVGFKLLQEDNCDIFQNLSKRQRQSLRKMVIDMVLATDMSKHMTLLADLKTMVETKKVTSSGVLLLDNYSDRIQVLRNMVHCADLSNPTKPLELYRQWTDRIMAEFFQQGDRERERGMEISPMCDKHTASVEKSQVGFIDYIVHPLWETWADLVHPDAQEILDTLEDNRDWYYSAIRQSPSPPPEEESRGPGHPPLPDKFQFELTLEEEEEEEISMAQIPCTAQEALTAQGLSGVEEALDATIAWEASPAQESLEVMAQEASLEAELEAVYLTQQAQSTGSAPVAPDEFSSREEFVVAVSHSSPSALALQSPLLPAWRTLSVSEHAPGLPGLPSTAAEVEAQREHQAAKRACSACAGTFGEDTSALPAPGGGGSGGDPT
T3 sequence (O76083 whole entry): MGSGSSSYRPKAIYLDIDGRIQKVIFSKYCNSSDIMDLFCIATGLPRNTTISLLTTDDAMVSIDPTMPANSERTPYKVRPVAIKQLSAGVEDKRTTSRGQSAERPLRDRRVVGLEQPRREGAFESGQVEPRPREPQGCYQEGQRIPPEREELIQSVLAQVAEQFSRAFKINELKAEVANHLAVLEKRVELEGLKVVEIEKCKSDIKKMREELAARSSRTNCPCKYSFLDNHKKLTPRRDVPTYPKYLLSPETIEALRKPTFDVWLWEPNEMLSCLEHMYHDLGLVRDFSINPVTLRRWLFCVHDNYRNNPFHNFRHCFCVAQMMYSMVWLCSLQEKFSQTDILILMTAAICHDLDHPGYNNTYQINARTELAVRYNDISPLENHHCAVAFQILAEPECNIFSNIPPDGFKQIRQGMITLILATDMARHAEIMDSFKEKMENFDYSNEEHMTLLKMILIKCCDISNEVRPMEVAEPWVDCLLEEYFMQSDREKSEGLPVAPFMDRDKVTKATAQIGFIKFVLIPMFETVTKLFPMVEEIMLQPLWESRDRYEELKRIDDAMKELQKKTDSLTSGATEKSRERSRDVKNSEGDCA
T10 sequence (O00408 whole entry): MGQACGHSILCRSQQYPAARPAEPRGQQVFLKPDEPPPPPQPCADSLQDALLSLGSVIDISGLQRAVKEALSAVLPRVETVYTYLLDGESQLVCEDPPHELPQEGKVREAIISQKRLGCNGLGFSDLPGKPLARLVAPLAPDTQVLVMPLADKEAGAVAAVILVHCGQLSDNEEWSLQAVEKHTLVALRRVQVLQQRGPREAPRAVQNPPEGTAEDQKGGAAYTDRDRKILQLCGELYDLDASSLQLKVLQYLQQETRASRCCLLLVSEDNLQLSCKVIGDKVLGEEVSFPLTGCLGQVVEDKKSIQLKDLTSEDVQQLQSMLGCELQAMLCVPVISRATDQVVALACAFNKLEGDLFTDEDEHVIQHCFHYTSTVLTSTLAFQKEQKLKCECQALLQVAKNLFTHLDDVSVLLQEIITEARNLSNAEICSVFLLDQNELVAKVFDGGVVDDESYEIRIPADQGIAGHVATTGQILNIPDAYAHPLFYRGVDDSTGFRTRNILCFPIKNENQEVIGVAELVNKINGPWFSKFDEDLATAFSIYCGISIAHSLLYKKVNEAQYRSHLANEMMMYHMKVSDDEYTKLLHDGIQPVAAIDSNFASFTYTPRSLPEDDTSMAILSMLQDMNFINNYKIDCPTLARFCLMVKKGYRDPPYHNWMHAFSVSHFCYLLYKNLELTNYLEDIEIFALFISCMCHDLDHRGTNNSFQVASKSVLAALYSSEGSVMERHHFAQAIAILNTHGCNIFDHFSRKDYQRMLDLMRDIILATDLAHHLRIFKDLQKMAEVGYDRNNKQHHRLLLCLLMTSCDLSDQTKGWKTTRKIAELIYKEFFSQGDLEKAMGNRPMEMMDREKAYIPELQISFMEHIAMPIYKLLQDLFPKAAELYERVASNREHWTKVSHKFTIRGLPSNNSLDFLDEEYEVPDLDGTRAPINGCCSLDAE
T11 sequence (Q9Y233 1-779 isoform Q9Y233-1): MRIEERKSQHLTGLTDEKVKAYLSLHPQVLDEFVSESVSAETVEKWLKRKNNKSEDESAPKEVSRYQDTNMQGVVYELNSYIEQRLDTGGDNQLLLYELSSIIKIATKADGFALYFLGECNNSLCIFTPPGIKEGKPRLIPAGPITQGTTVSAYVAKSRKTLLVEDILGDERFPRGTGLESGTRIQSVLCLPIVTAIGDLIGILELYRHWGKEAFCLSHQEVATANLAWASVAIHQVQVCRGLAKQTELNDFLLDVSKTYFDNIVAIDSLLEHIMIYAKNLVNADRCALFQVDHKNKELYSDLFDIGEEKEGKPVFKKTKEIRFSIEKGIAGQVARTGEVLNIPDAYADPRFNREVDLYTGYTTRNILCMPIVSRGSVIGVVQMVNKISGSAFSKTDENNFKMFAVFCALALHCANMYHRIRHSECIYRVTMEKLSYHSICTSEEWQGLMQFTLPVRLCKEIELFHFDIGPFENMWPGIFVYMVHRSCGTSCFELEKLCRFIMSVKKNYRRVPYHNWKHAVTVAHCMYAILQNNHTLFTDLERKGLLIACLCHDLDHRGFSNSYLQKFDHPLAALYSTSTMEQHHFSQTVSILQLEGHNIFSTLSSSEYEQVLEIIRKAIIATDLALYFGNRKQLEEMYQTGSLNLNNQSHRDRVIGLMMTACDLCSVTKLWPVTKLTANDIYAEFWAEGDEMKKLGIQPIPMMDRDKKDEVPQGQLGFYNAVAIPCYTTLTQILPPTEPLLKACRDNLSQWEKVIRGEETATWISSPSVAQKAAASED
T8 sequence (O60658 whole entry): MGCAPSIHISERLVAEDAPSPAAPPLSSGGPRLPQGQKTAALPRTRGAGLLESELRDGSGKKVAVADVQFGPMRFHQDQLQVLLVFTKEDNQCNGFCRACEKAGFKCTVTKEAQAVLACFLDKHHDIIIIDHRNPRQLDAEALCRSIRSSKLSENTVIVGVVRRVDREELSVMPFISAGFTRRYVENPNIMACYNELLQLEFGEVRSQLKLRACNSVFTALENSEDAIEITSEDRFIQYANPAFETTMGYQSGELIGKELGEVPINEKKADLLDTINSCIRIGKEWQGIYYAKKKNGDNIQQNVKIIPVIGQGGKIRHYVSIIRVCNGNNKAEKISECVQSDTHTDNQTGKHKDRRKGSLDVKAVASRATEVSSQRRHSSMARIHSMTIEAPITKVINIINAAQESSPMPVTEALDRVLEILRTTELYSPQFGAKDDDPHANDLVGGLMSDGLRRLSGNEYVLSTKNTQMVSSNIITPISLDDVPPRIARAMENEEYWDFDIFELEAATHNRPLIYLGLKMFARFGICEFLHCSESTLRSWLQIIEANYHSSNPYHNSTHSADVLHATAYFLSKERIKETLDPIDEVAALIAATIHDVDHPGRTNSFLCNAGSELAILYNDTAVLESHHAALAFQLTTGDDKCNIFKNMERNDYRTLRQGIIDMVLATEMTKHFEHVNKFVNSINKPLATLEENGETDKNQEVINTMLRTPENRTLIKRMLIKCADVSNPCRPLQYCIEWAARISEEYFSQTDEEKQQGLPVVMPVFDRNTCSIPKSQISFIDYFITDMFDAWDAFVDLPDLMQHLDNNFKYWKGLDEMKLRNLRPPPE
T4 sequence (P54750 whole entry): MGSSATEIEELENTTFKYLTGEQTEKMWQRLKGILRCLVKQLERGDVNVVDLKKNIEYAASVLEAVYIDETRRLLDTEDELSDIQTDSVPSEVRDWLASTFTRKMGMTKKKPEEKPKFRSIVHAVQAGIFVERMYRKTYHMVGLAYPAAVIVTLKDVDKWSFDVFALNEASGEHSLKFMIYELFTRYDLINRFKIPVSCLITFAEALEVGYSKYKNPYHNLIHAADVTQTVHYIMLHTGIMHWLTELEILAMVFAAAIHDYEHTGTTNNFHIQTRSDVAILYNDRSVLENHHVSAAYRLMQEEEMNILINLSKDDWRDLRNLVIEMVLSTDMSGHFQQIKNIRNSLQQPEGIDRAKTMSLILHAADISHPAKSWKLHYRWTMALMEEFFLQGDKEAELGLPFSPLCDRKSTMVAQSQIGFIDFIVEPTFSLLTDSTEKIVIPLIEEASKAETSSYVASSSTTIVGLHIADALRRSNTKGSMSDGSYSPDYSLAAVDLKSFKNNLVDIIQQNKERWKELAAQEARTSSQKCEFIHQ
T7 sequence (Q13946 whole entry): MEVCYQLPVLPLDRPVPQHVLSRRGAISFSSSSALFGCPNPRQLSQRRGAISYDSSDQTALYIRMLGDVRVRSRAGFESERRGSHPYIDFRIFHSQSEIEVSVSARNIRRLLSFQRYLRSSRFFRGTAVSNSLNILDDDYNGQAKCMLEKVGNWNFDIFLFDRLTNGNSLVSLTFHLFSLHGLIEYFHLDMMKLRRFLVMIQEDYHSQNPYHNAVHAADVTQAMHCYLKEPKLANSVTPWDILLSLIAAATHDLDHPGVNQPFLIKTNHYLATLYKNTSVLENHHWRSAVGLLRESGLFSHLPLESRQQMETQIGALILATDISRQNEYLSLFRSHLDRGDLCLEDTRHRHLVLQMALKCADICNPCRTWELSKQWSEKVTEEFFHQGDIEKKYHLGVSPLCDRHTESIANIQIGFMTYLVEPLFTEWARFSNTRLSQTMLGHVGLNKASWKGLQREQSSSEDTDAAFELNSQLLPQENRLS

SMILES | IC50 [1] | IC50 [2] | inhibition at 1 µM [3] | inhibition at 1 µM [4] | inhibition at 1 µM [5] | Inhibition of PDE Sub-Types (%) 2A3 [13] | Inhibition of PDE Sub-Types (%) 10A1 [14] | other results
COc1cc(Br)cc2c1nc(C)c1c(C)nc(-c3ccc(F)nc3)n12 [AQ28A] | > 1000 nM | 2.95 nM | – | – | – | – | – | –
COc1ccc(Cc2nn3c([C@H](CCCc4ccccc4)[C@H](C)O)nc(C)c3c(=O)[nH]2)cc1OC [BAY 60-7550] | 4.7 nM | – | – | – | – | – | – | –
COc1ccc(Cl)c(-c2nc(C)c3nnc4ccc(-c5ccnc(F)c5)cc4n23)c1 [BIT1, 1-(2-Chloro-5-methoxyphenyl)-8-(2-fluoropyridin-4-yl)-3methylbenzo[e]imidazo[5,1-c][1,2,4]triazine] | – | – | 58.6% | 29.3% | < 0% | – | – | inhibition at 1 µM [6]: 12.6%; inhibition at 1 µM [7]: 20%; inhibition at 1 µM [8]: 16.8%; inhibition at 1 µM [9]: 16.4%; inhibition at 1 µM [10]: 23.3%; inhibition at 1 µM [11]: 14.5%; Metabolic stability in vitro ([12]; MLM 1 mg/mL, NADPH 2 mM, 20 µM compound, 37 °C, 90 min): unchanged BIT1 could still be detected in high amounts; also recorded: considerable metabolic stability; also recorded: sufficiently stable
Cc1nc(-c2cc(OCC3(C)COC3)ccc2Cl)n2c1nnc1ccc(-c3ccc(F)nc3)cc12 [BIT2, 1-(2-Chloro-5-((3-methyloxetan-3-yl)methoxy)phenyl)-8-(6-fluoropyridin-3-yl)-3-methylbenzo[e]imidazo[5,1-c][1,2,4]triazine] | – | – | 64.1% | < 0% | < 0% | 8.52% | 2.46% | –
Cc1nc(-c2cc(OCC3(C)COC3)ccc2Cl)n2c1nnc1ccc(-c3ccnc(F)c3)cc12 [BIT3, 1-(2-Chloro-5-((3-methyloxetan-3-yl)methoxy)phenyl)-8-(2-fluoropyridin-4-yl)-3-methylbenzo[e]imidazo[5,1-c][1,2,4]triazine] | – | – | 72.7% | < 0% | < 0% | 13.2% | 28.2% | –
COc1ccc(Cl)c(-c2nc(C)c3nnc4ccc(-c5ccc(F)nc5)cc4n23)c1 [BIT4, 1-(2-Chloro-5-methoxyphenyl)-8-(6-fluoropyridin-3-yl)-3 methylbenzo[e]imidazo[5,1-c][1,2,4]triazine] | – | – | < 0% | < 0% | < 0% | 2.63% | 10.8% | Selectivity over PDE10A compared to BIT7 [14]: eight
COc1ccc(Cl)c(-c2nc(C)c3nnc4ccc(-c5cccnc5F)cc4n23)c1 [BIT5, 1-(2-Chloro-5-methoxyphenyl)-8-(2-fluoropyridin-3-yl)-3 methylbenzo[e]imidazo[5,1-c][1,2,4]triazine] | – | – | < 0% | < 0% | < 0% | NI (NI: No Inhibition) | 22.1% | Selectivity over PDE10A compared to BIT7 [14]: four
COc1ccc(F)c(-c2nc(C)c3nnc4ccc(-c5ccnc(F)c5)cc4n23)c1 [BIT6, 1-(2-Fluoro-5-methoxyphenyl)-8-(2-fluoropyridin-4-yl)-3-methylbenzo[e]imidazo[5,1-c][1,2,4]triazine] | – | – | 54.2% | 13.6% | 28.4% | – | 74.0% | IC50 [15]: 65.1 nM; IC50 [16]: 168 nM; Inhibition of PDE Sub-Types (%) 2A3 ([13]; 0.01 µM): 56% and 56.6%; Selectivity Ratio (PDE10A/PDE2A) [13]: 2.5
COc1ccc(Cl)c(-c2nc(C)c3nnc4ccc(-c5cncc(F)c5)cc4n23)c1 [BIT7, 1-(2-Chloro-5-methoxyphenyl)-8-(3-fluoropyridin-5-yl)-3 methylbenzo[e]imidazo[5,1-c][1,2,4]triazine] | – | – | 65.7% | 25.1% | 11.5% | – | 87.0% | –
COc1ccc(F)c(-c2nc(C)c3nnc4ccc(-c5cccnc5)cc4n23)c1 [BIT8, 1-(2-Fluoro-5-methoxyphenyl)-3-methyl-8-(pyridin-3-yl)benzo[e]imidazo[5,1-c][1,2,4]triazine] | – | – | 13.9% | 36.2% | < 0% | NI (NI: No Inhibition) | 55.5% | –
COc1ccc(F)c(-c2nc(C)c3nnc4ccc(-c5ccncc5)cc4n23)c1 [BIT9, 1-(2-Fluoro-5-methoxyphenyl)-3-methyl-8-(pyridin-4-yl)benzo[e]imidazo[5,1-c][1,2,4]triazine] | – | – | 86.8% | 57.7% | 17.5% | 80.5% | 96.6% | IC50 [15]: 17.7 nM; IC50 [16]: 20.2 nM; Selectivity Ratio (PDE10A/PDE2A) [13]: 1.1
COc1ccc(Cl)c(-c2nc(C)c3nnc4ccc(F)cc4n23)c1 [III] | 20.1 nM | 183 nM | – | – | – | – | – | –
COc1ccc(Cl)c(-c2nc(C)c3nnc4c(OC)cc(F)cc4n23)c1 [II] | 108 nM | 2.45 nM | – | – | – | – | – | –
CCCCOc1ccc(F)c(-c2nc(C)c3nnc4ccc(OC)nc4n23)c1 [TA1, reference compound] | – | – | 24.9% | 3.08% | < 0% | – | – | –
COc1ccc2nnc3c(C)nc(-c4cc(OCCCF)ccc4F)n3c2n1 [TA3] | 11.4 nM | 318 nM | – | – | – | – | – | Selectivity for PDE2A over PDE10A [1]: 28 fold
COc1ccc2nnc3c(C)nc(-c4cc(OCCCCF)ccc4F)n3c2n1 [TA4] | 7.3 nM | 913 nM | – | – | – | – | – | Selectivity for PDE2A over PDE10A [1]: 125 fold
CCCCOc1ccc(F)c(-c2nc(C)c3nnc4ccc(OCCF)nc4n23)c1 [TA5] | – | > 1000 nM | – | – | – | – | – | –
C[C@]12CC[C@H]3[C@@H](CCC4=CC(=O)CC[C@@]43C)[C@@H]1CC[C@@H]2O [testosterone, reference compound] | – | – | – | – | – | – | – | Conversion of positive control substrate ([12]; MLM with NADPH, confirmed by HPLC): complete conversion
